The values that follow come from a melting point compilation (Tetko et al.; mined from patent text by program, amines drawn as free bases though some values may be those of a salt).

As for `N#Cc1ccc(OCCCNCCO)cc1`, the melting point (usually the temperature, or range, at which the solid turns liquid) is 88 °C.
The result for `CC(C#CC1CC(Oc2ccc(OC(F)(F)F)cc2)C1)N(O)C(N)=O` (single isomer, unassigned; (+)) reads 103 to 105 °C; that for `O=C(c1cc(-c2ccccc2)c(=O)n2c1-c1ccccc1C2)N1CCOCC1`, 262 to 266 °C; that for `Cc1csc(-c2cc(=O)n(C)c3ccc(C(=O)c4ccc(Cl)cc4)cc23)n1`, 236 °C.
The value for `Cc1cc(C)c2c(c1)C(NC(=O)c1conc1C)CCC2` (stereo unspecified) was 57 to 58 °C; that for `COc1cc(N)ccc1S(=O)(=O)Nc1ccccc1C` was 189 to 191 °C.
The result for `O=C(Cl)c1sc2cc(OCc3ccccc3)ccc2c1Cl` reads 132 to 134 °C.
In turn, `CSc1nn2c(N3CCN(CCO)CC3)cc(C)nc2c1S(=O)(=O)c1ccccc1` returned a melting point of 189 to 190 °C.
The value for `CCC1(CC)Cc2cc(OCC(=O)O)c(Cl)c(Cl)c2C1=O` was 111 °C; that for `CCCc1nn(-c2ccc(C(F)(F)F)cn2)cc1CCCOc1c(C#N)cccc1CC(=O)O` was 146 to 147 °C; that for `CC(=O)N1CCC2(CC1)Cc1ccccc1O2` was 94 to 97 °C.
The result for `CN(C)C(=O)c1ccc(-c2ccc(NC(=O)Nc3cccc(C(F)(F)F)c3)c(-c3n[nH]c(=O)[nH]3)c2)cc1` reads 212 °C; that for `CCC(=O)Nc1c(-n2cncn2)cnn1-c1c(Cl)cc(C(F)(F)F)cc1Cl`, 167 to 169 °C; that for `O=C1c2ccccc2C(=O)N1Cc1ccc(OCCCCc2ccccc2)cc1`, 106 to 108 °C.
The value for `O=CNc1csc(Cl)n1` was 138 °C.
`COCOc1cc(Cl)ccc1-c1cc(-c2cccc(C(=O)O)c2)c(C#N)c(NC(=O)c2ccco2)n1` returned a melting point of 214 to 216 °C.
The value for `Nc1ccc(C2(c3ccc(F)cc3)OCCO2)cc1[N+](=O)[O-]` was 105 °C; that for `CN(C)c1nc(Cl)nc(Cl)n1` was 123 to 124 °C.
As for `O=C1NC(=S)NC(=O)C1=Cc1c[nH]c2ccccc12`, the melting point was found to be 320 °C.
The value for `CCCC(=NOCC)C1=C(O)CC2(CSCCSC2)OC1=O` was 108 to 110 °C; that for `COc1ccc2c(c1)c(OCc1ccccc1)c(C(=O)O)n2-c1ccccc1` was 123 °C.
The result for `CC(CO)C1CCC2C3CCC4=C(N)C(=O)CCC4(C)C3CCC12C` (stereo unspecified) reads 180 to 185 °C.
In turn, `CCC1(C)CC(C)(C)c2cc(O)ccc21` (stereo unspecified) showed a melting point of 86 °C.
The value for `CCCCN1CNC(=O)NC1=O` was 205 to 207 °C; that for `Cc1ccc2oc(C(=O)N[C@H]3CCN(C(=O)c4cc(C(F)(F)F)cc(C(F)(F)F)c4)[C@H](Cc4ccc(Cl)cc4)C3)cc(=O)c2c1` was 240 to 241 °C.
The result for `COC(=O)CCCCCCCNC(=O)C(COS(C)(=O)=O)NS(=O)(=O)c1ccc(Cl)cc1` (racemic) reads 90 to 95 °C; that for `CCOC(=O)C(C#N)=CNc1ccc([N+](=O)[O-])cc1`, 227 to 228 °C.
The value for `CC1(C)CCC(C)(C)c2cc(-c3cc(I)ccc3-c3ccccc3)ccc21` was 120 to 122 °C; that for `CN(C)c1ccc(C=CC(=O)C=Cc2ccc(N(C)C)cc2)cc1` was 174 to 176 °C; that for `COC(=O)NC1=NCC(c2ccccc2F)N1C` (stereo unspecified) was 153 to 155 °C.
`CCCCCCCCCCN1C(=O)C2C3CCC(O3)C2C1=O` (stereo unspecified) registered a melting point of 30 to 31 °C.
The value for `Nc1cccc(-c2cccc3c2/C(=C/c2ccc[nH]2)C(=O)N3)c1` was 92 to 94 °C; that for `O=[N+]([O-])c1ccc(NS(=O)(=O)c2ccccc2)cc1` was 137 °C.
The result for `COC(=O)c1cc(Cl)c(C)c(N)c1Cl` reads 53 to 55 °C; that for `CC(=O)Nc1ccc(C2=NNC(=S)NC2C)cc1` (stereo unspecified), 222 to 226 °C; that for `CC(=O)Nc1ccc2nc3n(c2c1)CCC3`, 250 to 255 °C.
The result for `COC1=CC(=O)C(Br)=CC1=O` reads 184 to 186 °C; that for `O=C(Nc1ccc(C(=O)Oc2ccccc2)c(Cl)c1)c1ccccc1`, 126 to 128 °C.
Compound `CN1CCC(C2Oc3cc(F)ccc3Cn3cccc32)CC1` (stereo unspecified) gave a melting point of 115 to 120 °C.
The value for `CC(=O)ON(C)C(=O)/C=C/c1ccc(-n2c(C)ccc2C)cc1` was 120 to 121 °C; that for `NS(=O)(=O)c1ccc(SCCCO)c(C(=O)O)c1` was 204 to 206 °C.
For the compound `N#Cc1ccc(CNC(=O)c2cccc(C#CCn3cncn3)c2)cc1`, the melting point fell in the range of 183 to 186 °C.
The value for `NS(=O)(=O)c1cc(C(=O)O)cc(NCc2ccco2)c1-c1ccccc1` was 167 to 169 °C; that for `CN(C)c1ccc(S(=O)(=O)N2CC(OC(=O)C(C)(C)C)CC2=O)cc1` (stereo unspecified) was 117 to 118 °C; that for `Cc1cc(-c2noc(C(F)(F)F)n2)cc(C)c1OCCCc1ccc(CCl)nc1` was 79 to 81 °C.
The value for `CS(=O)(=O)Oc1ccc([N+](=O)[O-])c(O)c1` was 123 to 124 °C.
The result for `OCCOc1ccc(-n2cncn2)cc1` reads 151 to 152 °C; that for `CC1CCC(Nc2nccc(Oc3ccc(NC(=O)c4cc(F)cc(N5CCCCC5)c4)c4ccccc34)n2)CC1` (stereo unspecified), 101 to 102 °C; that for `CCCn1cc2c(C3C(=O)Nc4ccc(C#N)cc43)nc(NCc3cccnc3)nc2n1` (stereo unspecified), 291 to 295 °C.
For `CSCc1nnnn1C1CCN(c2ccc(N3C[C@H](CNC(C)=O)OC3=O)cc2F)CC1`, the melting point is 118 to 119 °C.
`O=C1CSc2cc(C(O)(C(F)(F)F)C(F)(F)F)ccc2N1` registered a melting point of 230 to 232 °C.
The value for `C=CCc1[nH]cc(C#N)c1-c1ccc(Cl)cc1C(=O)c1ccccc1F` was 142 to 144 °C; that for `NS(=O)(=O)c1ccc(-c2noc(-c3cnc4ccc(-c5ccc(Cl)cc5)cn34)n2)s1` was 263 °C.
In the case of `Cc1cc(C(=O)N2Cc3ccc(C(=O)N(C)CC(O)CO)n3Cc3ccccc32)ccc1-c1ccccc1C(F)(F)F` (stereo unspecified), the melting point fell in the range of 169 to 172 °C.
The result for `Cc1c(-c2ccccc2)ncc2c(N3CCOC(C)C3)nnc(N3CCOC(C)C3)c12` (stereo unspecified) reads 96 to 99 °C; that for `O=C(NCc1ccc(Cl)cc1)c1cnc2ccc(CC3CCOCC3)cc2c1O`, 184 to 185 °C.
The result for `CCOC(=O)c1c(C(C)Cl)nc2c(C(F)(F)F)cccc2c1O` (stereo unspecified) reads 104 °C.
The result for `COc1cccc2c1Oc1sc(C)cc1C(=O)N2` reads 160 to 164 °C.
`Cc1ccc2c3c(ccc2n1)OCC(CNCC1CCc2[nH]c4ccc(Cl)cc4c2C1)O3` (stereo unspecified) yielded a melting point of 104 to 105 °C.
The value for `COC(=O)COc1ccc(N=C=O)cc1` was 50 to 53 °C.
The result for `O=C(NC1CCCC1)c1ccc(CCN2CC=C(c3c[nH]c(-c4ccc(F)cc4)c3-c3ccncc3)CC2)cc1` reads 192 to 195 °C; that for `C[C@@H](c1ccc(F)cc1)N1CCN(c2cc(Oc3cccc4[nH]c(=O)c(N)nc34)ncn2)CC1`, 294 to 295 °C.
The value for `CC1(C)Cc2cc(OCCO)c3c(c2C(c2ccccc2)=N1)CC(C)(C)O3` was 90 to 92 °C; that for `Nc1nc2[nH]c(CCCCc3ccc(C(=O)N[C@@H](CCC(=O)O)C(=O)O)s3)cc2c(=O)[nH]1` was 179 to 180 °C; that for `S=C(NN=C(CCCCl)c1ccccc1)Nc1ccccc1` was 107 to 109 °C.
`CC(=O)Oc1c(C)c(C)c2c(c1C)CC(C)(CO)O2` (stereo unspecified) had a melting point of 98 to 99 °C.
The result for `CNc1cccc(-c2ccnc3c(C(=O)c4cccs4)cnn23)c1` reads 188 to 190 °C; that for `c1ccc2c(c1)CCn1cnnc1C2`, 191 °C.
The result for `O=C(O)c1cccc(-c2ccc3[nH]cc(-c4ccc(Cl)cc4Cl)c3c2)c1` reads 303 to 304 °C.
The result for `Cc1nc2cccnc2nc1S(=O)Cc1ccccn1` (stereo unspecified) reads 120 to 125 °C.
The compound `OCC(O)(Cn1cncn1)c1ccc(F)cc1F` (stereo unspecified) returned a melting point of 99 to 100 °C.
The result for `COC(=O)CCc1conc1-c1ccc(F)c(Cl)c1` reads 39 to 40 °C; that for `CCCCN1C(=O)c2c(c(C)nn2C)Nc2ncccc21`, 144 to 146 °C; that for `NCC(O)COc1ccc(-c2ccccc2)cc1` (stereo unspecified), 138 to 147 °C.
The result for `O=[N+]([O-])c1nccn1CC(F)CO` (stereo unspecified) reads 84 to 89 °C; that for `CS(=O)(=O)c1cc(CBr)ccc1Br`, 120 to 124 °C; that for `CCOC(=O)Cc1ccc(-n2cc(F)cn2)cc1`, 83.5 to 84.5 °C.
Compound `Cc1ccc(OCC(=O)O)c2c3c(C(N)=O)cccc3n(Cc3ccccc3)c12` showed a melting point of 253 to 254 °C.
The value for `C[Si](C)(C)C#Cc1c(C(F)(F)F)nn(-c2c(Cl)cc(C(F)(F)F)cc2Cl)c1N` was 120 to 123 °C; that for `Cc1ccc2c3c(c(=O)oc2c1)CN(Cc1ccccc1)CC3` was 109 to 111 °C; that for `CC1=C(C(=O)OC(C)C)C(c2cccc([N+](=O)[O-])c2)N(C(=O)OCc2ccccc2)C(=O)N1` (stereo unspecified) was 158 to 159 °C.
The result for `CC(C)=CCCOc1c(-c2ccc(S(C)(=O)=O)cc2)cnn(-c2cccc(Cl)c2)c1=O` reads 110 to 111 °C; that for `COc1ccc(Cn2cc[nH]c2=O)cc1`, 132 °C; that for `N=C(N)NCCCCOc1ccc2c(c1)CC(CCC(=O)O)C(=O)N2` (stereo unspecified), 152 to 155 °C.
The result for `CC1(c2ccc(Cl)cc2)Cc2cc(O)c(Cl)c(Cl)c2C1=O` (stereo unspecified) reads 211 to 213 °C; that for `O=C(CNc1ccccc1)Nc1cc(Cl)ccc1C(=O)O`, 229 to 230 °C.
The compound `O=C(O)c1cc2cc(F)c(Cl)cc2nc1Cl` came in with a melting point of 230 °C.
The result for `O=C(c1ccc(Cl)cc1)c1ccc(NCC2CO2)cc1` (stereo unspecified) reads 128 to 129 °C; that for `CNC(=O)c1cc2[nH]cnc2c(Cl)c1NC(=O)c1cc(C(F)(F)F)nn1-c1ncccc1Cl`, 190 to 192 °C.
The result for `CC(=O)c1noc2cc(O)ccc12` reads 159 to 161 °C.
The value for `O=C(NCCNCCNC(=O)C(F)(F)F)C(F)(F)F` was 68 to 70 °C.
